Where two headings read alike, the source gives them in different places.
What was measured:
[1] = test system: SH-SY5Y neuroblastoma cells; assay: CCK-8 cell cytotoxicity assay, SH-SY5Y; type: cell-based; settings: Homo sapiens, read-out: IC50 (μM) SH-SY5Y
Protocol: (§1) Cell cytotoxicity was determined by the CCK-8 assay. Four strains of human cells (SH-SY5Y) were seeded in 96-well plates at a density of 3 × 10^3 cells/well under 37 °C and 5% CO2 for 12 h and subsequently treated with the test sample solution (euphorbiasteroid and its metabolites, 10 μL) for 72 h. After treatment, each well with 10 μL CCK-8 reagent was incubated for 1–2 h in the incubator. Afterwards, the optical OD-value was measured at 450 nm through a microplate reader. Three multiple wells were set as parallel experimental groups.
(§2) Euphorbiasteroid and its metabolites were tested for their cytotoxicity on human cell lines SH-SY5Y, LO2, AC-16, and HK-2 by the CCK-8 assay. […] Therefore, considering the high content of euphorbiasteroid in Euphorbiae semen, it was speculated that the metabolites from hydroxylation and hydrolysis might be the potential toxic constituents of Euphorbiae semen.

LO2 cells = assay: CCK-8 cell cytotoxicity assay, LO2; type: cell-based; settings: Homo sapiens, read-out: IC50 (μM) LO2
Protocol: as §1, §2

AC-16 cells = assay: CCK-8 cell cytotoxicity assay, AC-16; type: cell-based; settings: Homo sapiens, read-out: IC50 (μM) AC-16
Protocol: as §1, §2

HK-2 cells = assay: CCK-8 cell cytotoxicity assay, HK-2; type: cell-based; settings: Homo sapiens, read-out: IC50 (μM) HK-2
Protocol: as §1, §2

[2] = Metabolite detection in rats (plasma, urine, feces) after oral euphorbiasteroid by UPLC-Q/TOF-MS; type: in vivo, Sprague-Dawley rats; settings: single oral dose 100 mg/kg euphorbiasteroid
Protocol: For metabolite separation and detection, chromatographic analyses were performed using a Waters Acquity UPLC I-class system (Waters, Milford, MA, USA), equipped with an auto-sampler, a binary solvent delivery system, an online degasser, and a photodiode array detector. An ACQUITY UPLC® HSS T3 column (2.1 × 150 mm, 1.8 μm, Waters) protected with a HSS T3 VanGuard ™ Pre-Column 3/Pk (2.1 × 5.0 mm, 1.8 μm, Waters) was used. The optimized parameters were set as follows: the mobile phase consisted of eluent A (0.1% formic acid in water, v/v) and eluent B (acetonitrile). The flow rate was 0.3 mL/min. The column and auto-sampler temperatures were maintained at 40 °C and 4 °C, respectively. The gradient elution program was optimized as follows: 0–9 min, 30–70% B; 9–13 min, 70–90% B; 13–17 min, 90–100% B; 17–20 min, 100–100% B.
The mass spectrometry detection was performed on the SYNAPT G2-Si HDMS system, equipped with an electrospray ionization (ESI) source (Waters Corp., Manchester, UK). A positive ion mode was conducted in this analysis. Mass spectrometry conditions were finally set as follows: capillary voltage of 3.0 kV, cone voltage of 40 V, source temperature of 120 °C, and de-solvation temperature of 400 °C. Nitrogen was used as the desolvation and cone gas with a flow rate of 800 and 50 L/h, respectively, and the full-scan mass range was set as m/z 50–1500 Da. In the auto mass spectrometry mode, the collision-induced dissociation energies were set at 0 eV for the precursor ion at the low-energy mode, and the collision-induced dissociation energies were set from 2 to 10 eV for the high-energy mode. Real-time data were calibrated using an external reference (LockSpray™) at a concentration of 0.2 ng/mL with an infusion flow rate of 5 μL/min, generating a reference ion for the positive ion mode (m/z 556.2771) during the UPLC-MS analysis. Data were acquired and processed using MassLynx ™ NT 4.1 software (Waters, Milford, MA, USA).
Male Sprague-Dawley rats (200–220 g) were commercially supplied by Shanghai Sippr-BK Laboratory Animal Co., Ltd. (Shanghai, China) and were housed in a humidity- and temperature-controlled room (50 ± 10% and 22–24 °C) with a 12-h light/dark cycle. The experimental rats were allowed to access food and water ad libitum and acclimatized to the conditions mentioned above for a week, then fasted overnight but with free access to water before the experiments. Euphorbiasteroid was dissolved in soybean oil solution (containing 0.5% ethanol) to form a concentration of 10 mg/mL. A single dose of 100 mg/kg euphorbiasteroid was orally administered to rats and the same concentration of soybean oil solution (containing 0.5% ethanol) was administered as a blank control. All animal procedures were performed in accordance with the Guidelines for Care and Use of Laboratory Animals of Naval Medical University and approved by the Animal Ethics Committee of Naval Medical University.
Blood samples (0.5 mL) were collected from six rats through the orbital sinus before administration (blank sample) and 0.25, 0.5, 1, 2, 4, 6, and 12 h after administration. Plasma samples were prepared by centrifugation at 4000 rpm for 10 min. For urine and feces sampling, 12 rats were divided into an administration group and a blank group, and were placed separately in stainless steel metabolic cages. Urine and feces samples were collected in containers surrounded by ice over 0–6, 6–12, and 12–24 h after drug administration. The mixed urine samples were centrifuged at 4000 rpm for 10 min at 4 °C to obtain the supernatants, and fecal samples were left in a cool and dry place until dry. All the biological samples were frozen at −80 °C before analysis.
An aliquot of 200 µL of plasma and urine samples was put in a 1.5 mL tube, respectively. 800 µL of acetonitrile was added and vortexed for 5 min to extract metabolites. Feces samples (1.0 g) were crushed and then ultrasonically extracted with acetonitrile (10 mL) for 30 min. […]

[3] = In vitro incubation of euphorbiasteroid with rat liver microsomes, metabolite detection; type: in vitro ADME; settings: 37 °C, 1 h, NADPH regenerating system
Protocol: The microsomal incubation approach was based on previous metabolism studies published by Wintermeyer et al. and Franziska et al.. A 200 μL incubation system containing 10 μL of solution A, 2 μL of solution B, 5 μL of rat liver microsomes (20 mg/mL) and 182 μL 0.1 M PBS buffer (pH = 7.4) was constructed. The above solution was heated in a 37 °C water bath, then 1 μL of euphorbiasteroid (dissolved in DMSO solution, 10 mM) was used to start the reaction, and the mixture was then incubated at 37 °C for 1 h. The reactions were terminated by the addition of 200 μL of ice-cold acetonitrile. The mixture was then centrifuged at 13,000 rpm for 10 min, and a 2-μL aliquot of the supernatant was directly injected into the UPLC-Q-TOF-MS system.
(§3) First, the metabolites of euphorbiasteroid in rats (plasma, urine, and feces), RLMs, and C. elegans culture medium were predicted by setting the prototype components and potential biological metabolic reactions in UNIFI 4.1 software. Then, the predicted metabolites in each sample were further compared according to the characteristic mass spectrum behaviors (including parent ions, internal cleavage in the ion source, and characteristic fragment ions of each metabolite) and retention times.

[4] = test system: Cunninghamella elegans bio-110930; assay: Microbial transformation of euphorbiasteroid, metabolite detection; settings: C. elegans bio-110930 culture with euphorbiasteroid
Protocol: The biotransformation process was conducted at two scales: preliminary screening and preparative. Preliminary screening scale biotransformation of euphorbiasteroid was carried out in 250 mL Erlenmeyer flasks containing 100 mL of liquid medium. The flasks were placed on a rotary shaker (160 rpm, 28 °C). A standard two-stage fermentation protocol was employed in all experiments. After 2 days of pre-culture, the substrates of 5 mg (dissolved in 0.5 mL of acetone) were added into each flask. Taking 1 mL samples on days 0, 2, 4, 7, 10, and 14, samples were centrifuged and the degree of transformation was compared to controls on TLC and HPLC, and a 2-μL aliquot of the supernatant was directly injected into the UPLC-Q-TOF-MS system. Culture controls consisted of sterile medium, in which microorganisms were grown under identical conditions without substrate. Substrate controls were composed of sterile medium and the same amount of substrate incubated under the same conditions without microorganisms.
as §3

[5] = test system: human cell lines SH-SY5Y, LO2, AC-16, and HK-2; assay: CCK-8 cytotoxicity, summary over four human cell lines; type: cell-based; settings: span over SH-SY5Y, LO2, AC-16, HK-2 (and over the named metabolites), read-out: IC50 values against four human cell lines
Protocol: as §1, §2

In the case of CC(=O)OC1C2C(OC(=O)Cc3ccccc3)C(C)CC2(OC(C)=O)C(=O)C(CO)=CC2C(CCC13CO3)C2(C)C (centres unmarked) [Compound M3, 20-hydroxyl euphorbiasteroid], the IC50 ([1]; 72 h) is reported as 39.6 ± 0.43 µM, the IC50 (LO2 cells; L02, 72 h) is reported as 37.4 ± 0.41 µM and the IC50 (AC-16 cells; 72 h) is reported as 17.9 ± 0.19 µM. The IC50 (HK-2 cells; HK-2, 72 h) was 22.7 ± 0.25 µM, the “Distribution Rat Faeces (metabolite detected)” value (from here on “Distribution Rat Faeces”) [2] was “√” and the “Distribution Rat Plasma (metabolite detected)” value (“Distribution Rat Plasma” below) [2] was “√”. For the same molecule, the “Distribution Rat Urine (metabolite detected)” value (shortened to “Distribution Rat Urine”) [2] was “√”, the “Distribution RLMs (metabolite detected)” value [3] was “√” and the “Distribution Fungi (metabolite detected)” value [4] was “√”.

CC1=CC2C(CCC3(CO3)C(O)C3C(O)C(C)CC3(O)C1=O)C2(C)C (centres unmarked) [Compound M24, epoxylathyrol] showed an IC50 ([1]; CCK-8, 72 h treatment) of 40.7 ± 0.44 µM, an IC50 (LO2 cells; L02, CCK-8, 72 h treatment) of 38.9 ± 0.42 µM and an IC50 (AC-16 cells; CCK-8, 72 h treatment) of 21.7 ± 0.24 µM. The IC50 (HK-2 cells; HK-2, CCK-8, 72 h treatment) was 26.5 ± 0.29 µM, the IC50 [5] was 3.6 to 40.7 µM and the “Distribution Rat Faeces” value [2] was “√”. The “Distribution Rat Plasma” value [2] was “√”, the “Distribution Rat Urine” value [2] was “√” and the “Distribution RLMs (metabolite detected)” value [3] was “√”.

CC(=O)OC1C2C(OC(=O)Cc3ccccc3)C(C)CC2(O)C(=O)C(C)=CC2C(CCC13CO3)C2(C)C (centres unmarked) [Compound M25, 15-deacetyl euphorbiasteroid] showed an IC50 ([1]; 72 h) of 33.3 ± 0.36 µM, an IC50 (LO2 cells; L02, 72 h) of 30.1 ± 0.33 µM and an IC50 (AC-16 cells; 72 h) of 3.6 ± 0.04 µM. The IC50 (HK-2 cells; HK-2, 72 h) was 16.1 ± 0.18 µM, the “Distribution Rat Faeces” value [2] was “√” and the “Distribution Rat Plasma” value [2] was “√”. The “Distribution Rat Urine” value [2] was “√” and the “Distribution RLMs (metabolite detected)” value [3] was “√”.
